Data: US20220144815A1, “1,3,4-OXADIAZOLES AND THEIR DERIVATIVES AS NEW ANTIFUNGAL AGENTS” (Bayer Aktiengesellschaft, priority 2018, published 2022)
Where two headings read alike, the source gives them in different places.

Key:
Alternaria brassicae = test: Example E: in vivo preventive test (cabbage); conditions: 144 h, 500 ppm of tested compound, preventive spray, evaluated 6 days after inoculation, read-out: efficacy
Description: Solvent: 5% by volume of dimethyl sulfoxide • 10% by volume of acetone Emulsifier: 1 μL of Tween® 80 per mg of active ingredient The tested compounds were made soluble and homogenized in a mixture of Dimethyl sulfoxide/Acetone/Tween® 80 and then diluted in water to the desired concentration. The young plants of cabbage were treated by spraying the tested compound prepared as described above. Control plants were treated only with an aqueous solution of Acetone/Dimethyl sulfoxide/Tween® 80. After 24 hours, the plants were contaminated by spraying the leaves with an aqueous suspension of Alternaria brassicae spores. The contaminated cabbage plants were incubated for 6 days at 20° C. and at 100% relative humidity. The test was evaluated 6 days after the inoculation. 0% means an efficacy which corresponds to that of the control plants while an efficacy of 100% means that no disease was observed.

Phakopsora pachyrhizi = test: Example F: in vivo preventive test (soybeans), DMSO/acetone/Tween 80; conditions: 288 h, 500 ppm of tested compound, preventive spray, soybean, evaluated 12 days after inoculation, read-out: efficacy
Description: Solvent: 5% by volume of dimethyl sulfoxide • 10% by volume of acetone
Emulsifier: 1 μL of Tween® 80 per mg of active ingredient
The tested compounds were made soluble and homogenized in a mixture of dimethyl sulfoxide/acetone/Tween® 80 and then diluted in water to the desired concentration.
The young plants of wheat were treated by spraying the tested compound prepared as described above. Control plants were treated only with an aqueous solution of acetone/dimethyl sulfoxide/Tween® 80.
After 24 hours, the plants were contaminated by spraying the leaves with an aqueous suspension of Phakospora pachyrhizi spores. The contaminated soybean plants were incubated for 24 hours at 24° C. and at 100% relative humidity and then for 11 days at 24° C. and at 70-80% relative humidity.
The test was evaluated 12 days after the inoculation. 0% means an efficacy which corresponds to that of the control plants while an efficacy of 100% means that no disease was observed.

[1] = tested on: Colletotrichum lindemuthianum; test: Example B: in vitro cell test, spore germination and mycelium growth in liquid culture; type: cell-based; conditions: 144 h, 20 ppm of tested compound, 6 days incubation, read-out: efficacy (inhibition of fungal growth)
Description: • Solvent: dimethyl sulfoxide Culture medium: 14.6 g anhydrous D-glucose (VWR), • 7.1 g mycological peptone (Oxoid), • 1.4 g granulated yeast extract (Merck), QSP 1 liter Inoculum: spore suspension The tested compounds were solubilized in dimethyl sulfoxide and the solution used to prepare the required range of concentrations. The final concentration of dimethyl sulfoxide used in the assay was ≤1%. A spore suspension of Colletotrichum lindemuthianum was prepared and diluted to the desired spore density. The compounds were evaluated for their ability to inhibit spore germination and mycelium growth in liquid culture assay. The compounds were added in the desired concentration to the culture medium with spores. After 6 days incubation, fungi-toxicity of compounds was determined by spectrometric measurement of mycelium growth. Inhibition of fungal growth was determined by comparing the absorbance values in wells containing the tested compounds with the absorbance in control wells without tested compounds.

[2] = Log P by HPLC on reversed phase columns, method [a] (EEC directive 79/831 Annex V.A8); type: physicochemical; conditions: reversed phase HPLC column, read-out: logP
Procedure, shortened: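 Reversed-phase HPLC with LC-UV detection per EEC directive 79/831 Annex V.A8, acidic eluent of 0.1% formic acid in water and acetonitrile, linear gradient 10% to 95% acetonitrile. Log P derived from retention times, calibrated against straight-chain alkan-2-ones (C3–C16) by linear interpolation.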

[3] = method [a], HPLC on reversed phase columns
[4] = log P determined according to method [a] (HPLC on reversed phase columns)

chromatographic logP [2, 3]	chromatographic logP [2, 4]	SMILES	pest or weed control at 500 µg/mL (Alternaria brassicae) [%]	pest or weed control at 500 µg/mL (Phakopsora pachyrhizi) [%]	inhibition of growth at 20 µg/mL [1] [%]
–	–	FC(F)c1nnc(-c2ccc(-c3ccccc3)cc2)o1 [I.007, 2-([biphenyl]-4-yl)-5-(difluoromethyl)-1,3,4-oxadiazole]	80 to 89	–	–
–	–	FC(F)c1nnc(-c2ccc(-c3nnc(C(F)F)o3)cc2)o1 [I.019, 2,2′-(1,4-phenylene)bis[5-(difluoromethyl)-1,3,4-oxadiazole]]	–	90 to 100	–
–	–	CN(c1ccccc1)c1ncc(-c2nnc(C(F)F)o2)cn1 [I.087, 5-[5-(difluoromethyl)-1,3,4-oxadiazol-2-yl]-N-methyl-N-phenylpyrimidin-2-amine]	90 to 100	–	–
–	–	FC(F)c1nnc(-c2ccc(Br)cc2)o1 [I.009, 2-(4-bromophenyl)-5-(difluoromethyl)-1,3,4-oxadiazole]	–	70 to 79	–
–	–	FC(F)c1nnc(-c2ccc(Nc3ncccn3)cc2)o1 [I.013, N-{4-[5-(difluoromethyl)-1,3,4-oxadiazol-2-yl]phenyl}pyrimidin-2-amine]	90 to 100	–	90 to 100
3.6	–	Fc1cccc(C2(Nc3ncc(-c4nnc(C(F)F)o4)cn3)CCCC2)c1 [I.172, 5-[5-(difluoromethyl)-1,3,4-oxadiazol-2-yl]-N-[1-(3-fluorophenyl)cyclopentyl]pyrimidin-2-amine]	80 to 89	–	70 to 79
3.74	–	Fc1ccccc1C1(Nc2ncc(-c3nnc(C(F)F)o3)cn2)CCCC1 [I.171, 5-[5-(difluoromethyl)-1,3,4-oxadiazol-2-yl]-N-[1-(2-fluorophenyl)cyclopentyl]pyrimidin-2-amine]	80 to 89	70 to 79	70 to 79
–	–	Fc1cccc(Nc2ncc(-c3nnc(C(F)F)o3)cn2)c1 [I.094, 5-[5-(difluoromethyl)-1,3,4-oxadiazol-2-yl]-N-(3-fluorophenyl)pyrimidin-2-amine]	90 to 100	–	–
–	3.37	CON(c1ncc(-c2nnc(C(F)F)o2)cn1)C(C)c1ccccc1 (racemic) [I.147, N-{5-[5-(difluoromethyl)-1,3,4-oxadiazol-2-yl]pyrimidin-2-yl}-O-methyl-N-[(1RS)-1-phenylethyl]hydroxylamine]	90 to 100	80 to 89	–
–	–	FC(F)c1nnc(-c2ccc(-n3ccnn3)cc2)o1 [I.005, 2-(difluoromethyl)-5-[4-(1H-1,2,3-triazol-1-yl)phenyl]-1,3,4-oxadiazole]	90 to 100	–	–
–	–	FC(F)c1nnc(-c2ccc(COc3ccc(Cl)cc3)cc2)o1 [I.024, 2-{4-[(4-chlorophenoxy)methyl]phenyl}-5-(difluoromethyl)-1,3,4-oxadiazole]	–	90 to 100	–
–	–	FC(F)c1nnc(-c2ccc(N3CCCCC3)nc2)o1 [I.040, 5-[5-(difluoromethyl)-1,3,4-oxadiazol-2-yl]-2-(piperidin-1-yl)pyridine]	70 to 79	–	–
–	–	Nc1ncc(-c2nnc(C(F)F)o2)cn1 [I.059, 5-[5-(difluoromethyl)-1,3,4-oxadiazol-2-yl]pyrimidin-2-amine]	–	90 to 100	–
4.12	–	FC(F)(F)c1nnc(-c2cnc(NC3(c4ccccc4)CCC3)nc2)s1 [I.173, N-(1-phenylcyclobutyl)-5-[5-(trifluoromethyl)-1,3,4-thiadiazol-2-yl]pyrimidin-2-amine]	–	–	80 to 89
–	2.65	N#CC(Nc1ncc(-c2nnc(C(F)F)o2)cn1)c1ccc(F)cc1 (racemic) [I.141, (2RS)—({5-[5-(difluoromethyl)-1,3,4-oxadiazol-2-yl]pyrimidin-2-yl}amino)(4-fluorophenyl)acetonitrile]	–	–	70 to 79
–	2.7	Fc1ccc(Cc2ncc(-c3nnc(C(F)F)o3)cn2)c(F)c1 [I.115, 2-(2,4-difluorobenzyl)-5-[5-(difluoromethyl)-1,3,4-oxadiazol-2-yl]pyrimidine]	–	70 to 79	–
–	2.23	ON(Cc1ccccc1)c1ncc(-c2nnc(C(F)F)o2)cn1 [I.110, N-benzyl-5-[5-(difluoromethyl)-1,3,4-oxadiazol-2-yl]-N-hydroxypyrimidin-2-amine]	90 to 100	90 to 100	90 to 100
4.08	–	FC(F)(Cl)c1nnc(-c2cnc(NC3(c4ccccc4)CCC3)nc2)o1 [I.176, 5-{5-[chloro(difluoro)methyl]-1,3,4-oxadiazol-2-yl}-N-(1-phenylcyclobutyl)pyrimidin-2-amine]	–	–	70 to 79
–	3.26	Fc1ccccc1Nc1ncc(-c2nnc(C(F)(F)Cl)o2)cn1 [I.131, 5-{5-[chloro(difluoro)methyl]-1,3,4-oxadiazol-2-yl}-N-(2-fluorophenyl)pyrimidin-2-amine]	90 to 100	–	90 to 100
–	–	FC(F)c1nnc(-c2ccc(Cn3ccnc3)cc2)o1 [I.010, 2-(difluoromethyl)-5-[4-(1H-imidazol-1-ylmethyl)phenyl]-1,3,4-oxadiazole]	90 to 100	–	–
–	2.64	Fc1ccc(CNc2ncc(-c3nnc(C(F)F)o3)cn2)cc1 [I.112, 5-[5-(difluoromethyl)-1,3,4-oxadiazol-2-yl]-N-(4-fluorobenzyl)pyrimidin-2-amine]	–	–	70 to 79
–	–	FC(F)c1nnc(-c2cnc(NCc3ccccc3)nc2)o1 [I.088, N-benzyl-5-[5-(difluoromethyl)-1,3,4-oxadiazol-2-yl]pyrimidin-2-amine]	–	90 to 100	–
–	–	COCCNc1ncc(-c2nnc(C(F)F)o2)cn1 [I.068, 5-[5-(difluoromethyl)-1,3,4-oxadiazol-2-yl]-N-(2-methoxyethyl)pyrimidin-2-amine]	70 to 79	–	90 to 100
–	–	FC(F)c1nnc(-c2cnc(-c3ccsc3)nc2)o1 [I.072, 5-[5-(difluoromethyl)-1,3,4-oxadiazol-2-yl]-2-(3-thienyl)pyrimidine]	70 to 79	–	–
–	1.73	FC(F)c1nnc(-c2cnc(NCC3CCOCC3)nc2)o1 [I.105, 5-[5-(difluoromethyl)-1,3,4-oxadiazol-2-yl]-N-(tetrahydro-2H-pyran-4-ylmethyl)pyrimidin-2-amine]	80 to 89	–	–
–	–	CSc1ccc(-c2nnc(C(F)F)o2)cc1 [I.002, 2-(difluoromethyl)-5-[4-(methylsulfanyl)phenyl]-1,3,4-oxadiazole]	70 to 79	–	–
–	–	FC(F)c1nnc(-c2cnc(CC3CCCCC3)nc2)o1 [I.083, 2-(cyclohexylmethyl)-5-[5-(difluoromethyl)-1,3,4-oxadiazol-2-yl]pyrimidine]	–	90 to 100	–
–	–	Fc1ccccc1Nc1ccc(-c2nnc(C(F)F)o2)cc1 [I.017, N-{4-[5-(difluoromethyl)-1,3,4-oxadiazol-2-yl]phenyl}-2-fluoroaniline]	80 to 89	–	90 to 100
–	3.31	CON(Cc1ccc(Cl)cc1)c1ncc(-c2nnc(C(F)F)o2)cn1 [I.169, N-(4-chlorobenzyl)-N-{5-[5-(difluoromethyl)-1,3,4-oxadiazol-2-yl]pyrimidin-2-yl}-O-methylhydroxylamine]	–	–	80 to 89
